In one experiment the target is T1, NOX4 (Homo sapiens, UniProt Q9NPH5).
T1 construct: membranes prepared from cells specifically overexpressing the human NOX isoform
T1 sequence (Q9NPH5 1-578): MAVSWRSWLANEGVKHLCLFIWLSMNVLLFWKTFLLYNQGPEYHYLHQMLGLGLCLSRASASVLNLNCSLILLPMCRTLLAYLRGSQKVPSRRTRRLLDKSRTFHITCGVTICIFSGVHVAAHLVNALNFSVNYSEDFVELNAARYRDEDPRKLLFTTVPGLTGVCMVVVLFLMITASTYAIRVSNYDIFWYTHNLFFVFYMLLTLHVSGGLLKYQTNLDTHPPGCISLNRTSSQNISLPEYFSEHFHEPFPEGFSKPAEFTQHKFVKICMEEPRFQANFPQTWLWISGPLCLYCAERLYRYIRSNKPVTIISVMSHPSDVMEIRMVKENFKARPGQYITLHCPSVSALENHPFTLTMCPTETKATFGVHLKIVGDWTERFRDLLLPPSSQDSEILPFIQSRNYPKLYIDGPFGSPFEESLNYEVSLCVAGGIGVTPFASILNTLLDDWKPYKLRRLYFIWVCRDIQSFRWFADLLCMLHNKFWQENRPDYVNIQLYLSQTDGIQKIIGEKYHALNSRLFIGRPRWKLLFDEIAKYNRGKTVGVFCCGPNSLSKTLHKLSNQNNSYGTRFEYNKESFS
The experiment can be described thus: Amplex Red/HRP ROS production assay on membranes of NOX4-overexpressing cells, concentration-response. The class given is biochemical.

In the next experiment the target is T2, NOX1 (Homo sapiens, UniProt Q9Y5S8).
T2 construct: membranes prepared from cells specifically overexpressing the human NOX isoform
T2 sequence (Q9Y5S8 1-564): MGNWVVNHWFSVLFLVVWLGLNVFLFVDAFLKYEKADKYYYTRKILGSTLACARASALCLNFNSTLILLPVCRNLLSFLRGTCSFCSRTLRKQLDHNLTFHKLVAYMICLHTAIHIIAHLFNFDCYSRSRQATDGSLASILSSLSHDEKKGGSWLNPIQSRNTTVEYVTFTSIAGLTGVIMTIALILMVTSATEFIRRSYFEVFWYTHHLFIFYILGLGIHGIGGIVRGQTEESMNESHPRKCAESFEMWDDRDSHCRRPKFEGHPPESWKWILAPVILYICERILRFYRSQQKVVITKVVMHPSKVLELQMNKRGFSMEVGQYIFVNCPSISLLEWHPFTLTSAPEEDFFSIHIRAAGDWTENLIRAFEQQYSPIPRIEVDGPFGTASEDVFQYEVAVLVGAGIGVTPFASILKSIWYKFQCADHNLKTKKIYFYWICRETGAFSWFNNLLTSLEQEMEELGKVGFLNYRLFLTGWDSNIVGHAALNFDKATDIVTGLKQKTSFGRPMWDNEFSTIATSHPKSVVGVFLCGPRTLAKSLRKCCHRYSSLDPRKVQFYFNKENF
Briefly: Amplex Red/HRP ROS production assay on membranes of NOX1-overexpressing cells, concentration-response. It counts as biochemical.

A word on the Ki: it is the dissociation constant of the complex between target and ligand, obtained from inhibition or displacement. Read a high Ki as lower affinity. As for GKT771, the figures for the Ki at NOX4 and on NOX1 were 4 µM and 60 ± 6 nM, respectively.

The values are drawn from PMC6599972, “Inhibition of host NOX1 blocks tumor growth and enhances checkpoint inhibitor–based immunotherapy” (Life Science Alliance, 2019).
